Experimental data reported in the NIST ThermoML archive (doi:10.1016/j.fluid.2011.02.010).

Columns and labels:
[1] = for mass density / viscosity / speed of sound: 101 kPa; for speed of sound: Frequency=2 MHz
[2] = xn = mol fraction of the nth substance listed; conditions: 101 kPa, Liquid, x2 = 0; for speed of sound: Frequency=2 MHz

CC[NH2+]CC.O=S(=O)([O-])O [diethylammonium hydrogen sulfate]
[1]
Conditions | Normal melting temperature, visual observation [°C] | mass density, Metastable liquid [kg/m3] | speed of sound, Metastable liquid [m/s] | viscosity, Metastable liquid [mPa·s]
298.15 K | – | 1028.39 | 1432 | 25.8
303.15 K | – | 1023.97 | 1408 | 21.3
308.15 K | – | 1020.54 | 1392 | 18.1
318.15 K | – | 1012.68 | 1356 | 13.61
328.15 K | – | 1004.83 | 1324 | 10.2
Crystal | 81.00 | – | – | –

C[S+](C)[O-] [dimethyl sulfoxide] + CCCCn1cc[n+](C)c1.[Cl-]
[2]
Conditions | mass density [kg/m3] | speed of sound [m/s] | viscosity [mPa·s]
298.15 K | 1095.37 | 1496 | 1.99
303.15 K | 1092.41 | 1472 | 1.8
308.15 K | 1086.07 | 1460 | 1.65
318.15 K | 1076.22 | 1428 | 1.38
328.15 K | 1066.09 | 1412 | 1.04

C[S+](C)[O-] [dimethyl sulfoxide] + CC[NH2+]CC.O=S(=O)([O-])O
[2]
Conditions | mass density [kg/m3] | speed of sound [m/s] | viscosity [mPa·s]
298.15 K | 1095.37 | 1496 | 1.99
303.15 K | 1092.41 | 1472 | 1.8
308.15 K | 1086.07 | 1460 | 1.65
318.15 K | 1076.22 | 1428 | 1.38
328.15 K | 1066.09 | 1412 | 1.04

C[S+](C)[O-] [dimethyl sulfoxide]
[1], Liquid
Conditions | mass density [kg/m3] | speed of sound [m/s] | viscosity [mPa·s]
298.15 K | 1095.37 | 1496 | 1.99
303.15 K | 1092.41 | 1472 | 1.8
308.15 K | 1086.07 | 1460 | 1.65
318.15 K | 1076.22 | 1428 | 1.38
328.15 K | 1066.09 | 1412 | 1.04

CCCCn1cc[n+](C)c1.[Cl-] [1-butyl-3-methylimidazolium chloride]
[1], Liquid
Conditions | mass density [kg/m3] | speed of sound [m/s] | viscosity [mPa·s]
298.15 K | 1074.43 | 1868 | 29.21
303.15 K | 1071.38 | 1860 | 25.72
308.15 K | 1068.32 | 1848 | 21.21
318.15 K | 1062.14 | 1820 | 18.97
328.15 K | 1055.89 | 1804 | 16.74
